# Assay results taken from US20230015478A1, “GLP-1 RECEPTOR AGONISTS HAVING IMPROVED PHARMACOLOGICAL AND DRUG DELIVERY PROPERTIES” (priority 2021, published 2023).
# Where two headings read alike, the source gives them in different places. Square brackets hold non-standard residues; d marks the D form. Peptide text beside a SMILES is read from it. Bip = N[C@@H](Cc1ccc(-c2ccccc2)cc1)C(=O)O; αMePhe(2-F) = C[C@](N)(Cc1ccccc1F)C(=O)O; Phe(2-Cl) = N[C@@H](Cc1ccccc1Cl)C(=O)O; Phe(2-F) = N[C@@H](Cc1ccccc1F)C(=O)O; hPhe = N[C@@H](CCc1ccccc1)C(=O)O; Aib = CC(C)(N)C(=O)O
# Target: T1, hGLP1 receptor (Homo sapiens, UniProt P43220)
# T1 construct: expressed in transfected cells; host or cells: HEK (human embryonic kidney) cells co-expressing hGLP1 receptor and CRE-Luciferase
# T1 sequence (P43220 24-463): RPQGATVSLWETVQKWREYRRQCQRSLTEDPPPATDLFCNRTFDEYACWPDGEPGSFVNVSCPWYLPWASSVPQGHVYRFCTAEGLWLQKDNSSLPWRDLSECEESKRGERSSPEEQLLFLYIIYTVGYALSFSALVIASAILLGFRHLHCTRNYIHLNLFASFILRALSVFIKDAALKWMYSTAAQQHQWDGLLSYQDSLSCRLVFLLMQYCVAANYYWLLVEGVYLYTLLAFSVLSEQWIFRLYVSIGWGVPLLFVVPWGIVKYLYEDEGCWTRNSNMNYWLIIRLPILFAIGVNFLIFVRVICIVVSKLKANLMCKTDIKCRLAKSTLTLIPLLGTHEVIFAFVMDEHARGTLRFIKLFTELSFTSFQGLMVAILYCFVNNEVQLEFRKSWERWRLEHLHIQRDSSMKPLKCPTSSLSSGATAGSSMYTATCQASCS
# Experiment: cAMP HTRF agonist assay in HEK cells co-expressing hGLP1 receptor and CRE-Luciferase
# Assay type: cell-based
# Method: Human embryonic kidney cells (HEK) co-expressing the hGLP1 receptor and CRE-Luciferase construct were used to determine agonist potency in this assay. The cells were thawed briefly at 37° C., transferred to a sterile tube and re-suspended in complete media at 37° C. Cells were centrifuged at 1000 rpm for 5 minutes and cells collected; cells were re-suspended in assay buffer consisting of DPBS (GIBCO) with 500 μM of the phosphodiesterase inhibitor IBMX. […] The optimal cell density was determined to be 1000 cells/well; cells were added to wells in 384-well plates containing appropriate pre-prepared dilutions of compounds (test peptides or reference compound exendin-4), sealed and incubated with CO2 for 30 min. Test peptide solutions were diluted from 10 mM stock solutions; for most peptides an initial run was performed in duplicate from a maximal concentration of 1.0 μM, with 11 concentrations tested for each peptide using serial 1:3 dilution from this maximal concentration. […] The agonist assay was a homogeneous time-resolved fluorescence (HTRF) assay (Cisbio).
# Following incubation of the cells for 30 minutes with test or reference peptides, 5 μL of the cAMP acceptor cAMP-d2, prepared previously as a working solution from frozen stock (1:20 dilution), was added to each well of the assay plate, along with 5 μL of anti-cAMP antibody-cryptate working solution (diluted 1:20 from frozen stock). The wells were incubated for 1 hour at room temperature, and fluorescence was then read at 665 and 615 nm with an Envision reader with TRF laser. Data were saved and analyzed using Prism software (GraphPad). Concentration-response analysis was performed using 4-parameter logistic fits of the resulting data, and EC50 values obtained for each test and reference compound.
# [1] = Table 5, 0% albumin, read-out: cAMP EC50, nM (0% albumin)
# [2] = cAMP EC50, nM (0.1% albumin), Table 1, 0.1% albumin
# [3] = cAMP EC50, nM (0.1% albumin), Table 4, 0.1% albumin
# [4] = cAMP EC50, nM (0.1% albumin), Table 6, 0.1% albumin
smiles,measurement,setting,value
"C[C@@H](O)[C@H](NC(=O)CNC(=O)[C@H](CCC(=O)O)NC(=O)C(C)(C)NC(=O)[C@@H](N)Cc1c[nH]cn1)C(=O)N[C@@H](Cc1ccccc1)C(=O)N[C@H](C(=O)N[C@@H](CO)C(=O)N[C@@H](CC(=O)O)C(=O)N[C@@H](Cc1ccc(-c2ccccc2)cc1)C(=O)N[C@@H](Cc1ccc(-c2ccccc2)cc1)C(N)=O)[C@@H](C)O [1-1, H2N-His-Aib-Glu-Gly-Thr-Phe-Thr-Ser-Asp-Bip-Bip-C(O)NH2] (H-H[Aib]EGTFTSD[Bip][Bip]-NH2)",EC50,[1],6.82 nM
same,EC50,[2],6.82 nM
"C[C@@H](O)[C@H](NC(=O)CNC(=O)[C@H](CCC(=O)O)NC(=O)C(C)(C)NC(=O)[C@@H](N)Cc1c[nH]cn1)C(=O)N[C@@](C)(Cc1ccccc1F)C(=O)N[C@H](C(=O)N[C@@H](CO)C(=O)N[C@@H](CC(=O)O)C(=O)N[C@@H](Cc1ccc(-c2ccccc2)cc1)C(=O)N[C@@H](Cc1ccc(-c2ccccc2)cc1)C(N)=O)[C@@H](C)O [1-2, H2N-His-Aib-Glu-Gly-Thr-α-MePhe(2-F)-Thr-Ser-Asp-Bip-Bip-C(O)NH2] (H-H[Aib]EGT[αMePhe(2-F)]TSD[Bip][Bip]-NH2)",EC50,[1],0.09 nM
same,EC50,[2],0.09 nM
same,EC50,"cAMP EC50, nM (0.1% albumin), Table 3, 0.1% albumin",0.09 nM
same,EC50,[3],0.09 nM
same,EC50,[4],0.09 nM
"C[C@@H](O)[C@H](NC(=O)CNC(=O)[C@H](CCC(=O)O)NC(=O)C(C)(C)NC(=O)[C@@H](N)Cc1c[nH]cn1)C(=O)N[C@@](C)(Cc1ccccc1F)C(=O)N[C@H](C(=O)N[C@@H](CO)C(=O)N[C@@H](CC(=O)O)C(=O)N[C@@H](CCc1ccccc1)C(=O)N[C@@H](Cc1ccc(-c2ccccc2)cc1)C(N)=O)[C@@H](C)O [1-3, H2N-His-Aib-Glu-Gly-Thr-α-MePhe(2-F)-Thr-Ser-Asp-Hph-Bip-C(O)NH2] (H-H[Aib]EGT[αMePhe(2-F)]TSD[hPhe][Bip]-NH2)",EC50,[1],11 nM
"C[C@@H](O)[C@H](NC(=O)CNC(=O)[C@H](CCC(=O)O)NC(=O)C(C)(C)NC(=O)[C@@H](N)Cc1c[nH]cn1)C(=O)N[C@@](C)(Cc1ccccc1F)C(=O)N[C@H](C(=O)N[C@@H](CO)C(=O)N[C@@H](CC(=O)O)C(=O)N[C@@H](Cc1ccc(-c2ccccc2)cc1)C(=O)N[C@@H](CCc1ccccc1)C(N)=O)[C@@H](C)O [1-4, H2N-His-Aib-Glu-Gly-Thr-α-MePhe(2-F)-Thr-Ser-Asp-Bip-Hph-C(O)NH2] (H-H[Aib]EGT[αMePhe(2-F)]TSD[Bip][hPhe]-NH2)",EC50,[1],11 nM
same,EC50,[4],11 nM
"C[C@@H](O)[C@H](NC(=O)CNC(=O)[C@H](CCC(=O)O)NC(=O)C(C)(C)NC(=O)[C@H](Cc1c[nH]cn1)NC(=O)[C@@H](N)CCCNC(=N)N)C(=O)N[C@@H](Cc1ccccc1)C(=O)N[C@H](C(=O)N[C@@H](CO)C(=O)N[C@@H](CC(=O)O)C(=O)N[C@@H](Cc1ccc(-c2ccccc2)cc1)C(=O)N[C@@H](Cc1ccc(-c2ccccc2)cc1)C(N)=O)[C@@H](C)O [2-1, H2N-Arg-His-Aib-Glu-Gly-Thr-Phe-Thr-Ser-Asp-Bip-Bip-C(O)NH2] (H-RH[Aib]EGTFTSD[Bip][Bip]-NH2)",EC50,[3],10.6 nM
"C[C@@H](O)[C@H](NC(=O)CNC(=O)[C@H](CCC(=O)O)NC(=O)C(C)(C)NC(=O)[C@H](Cc1c[nH]cn1)NC(=O)[C@@H](N)CCC(=O)O)C(=O)N[C@@H](Cc1ccccc1)C(=O)N[C@H](C(=O)N[C@@H](CO)C(=O)N[C@@H](CC(=O)O)C(=O)N[C@@H](Cc1ccc(-c2ccccc2)cc1)C(=O)N[C@@H](Cc1ccc(-c2ccccc2)cc1)C(N)=O)[C@@H](C)O [2-2, H2N-Glu-His-Aib-Glu-Gly-Thr-Phe-Thr-Ser-Asp-Bip-Bip-C(O)NH2] (H-EH[Aib]EGTFTSD[Bip][Bip]-NH2)",EC50,[3],40.1 nM
"C[C@@H](O)[C@H](NC(=O)CNC(=O)[C@H](CCC(=O)O)NC(=O)C(C)(C)NC(=O)[C@H](Cc1c[nH]cn1)NC(=O)CN)C(=O)N[C@@H](Cc1ccccc1)C(=O)N[C@H](C(=O)N[C@@H](CO)C(=O)N[C@@H](CC(=O)O)C(=O)N[C@@H](Cc1ccc(-c2ccccc2)cc1)C(=O)N[C@@H](Cc1ccc(-c2ccccc2)cc1)C(N)=O)[C@@H](C)O [2-3, H2N-Gly-His-Aib-Glu-Gly-Thr-Phe-Thr-Ser-Asp-Bip-Bip-C(O)NH2] (H-GH[Aib]EGTFTSD[Bip][Bip]-NH2)",EC50,[3],21.1 nM
"C[C@@H](O)[C@H](NC(=O)CNC(=O)[C@H](CCC(=O)O)NC(=O)C(C)(C)NC(=O)[C@H](Cc1c[nH]cn1)NC(=O)[C@@H]1CCCN1)C(=O)N[C@@H](Cc1ccccc1)C(=O)N[C@H](C(=O)N[C@@H](CO)C(=O)N[C@@H](CC(=O)O)C(=O)N[C@@H](Cc1ccc(-c2ccccc2)cc1)C(=O)N[C@@H](Cc1ccc(-c2ccccc2)cc1)C(N)=O)[C@@H](C)O [2-4, H2N-Pro-His-Aib-Glu-Gly-Thr-Phe-Thr-Ser-Asp-Bip-Bip-C(O)NH2] (H-PH[Aib]EGTFTSD[Bip][Bip]-NH2)",EC50,[3],14.7 nM
"C[C@@H](O)[C@H](NC(=O)CNC(=O)[C@H](CCC(=O)O)NC(=O)C(C)(C)NC(=O)[C@H](Cc1c[nH]cn1)NC(=O)[C@@H](N)Cc1c[nH]c2ccccc12)C(=O)N[C@@H](Cc1ccccc1)C(=O)N[C@H](C(=O)N[C@@H](CO)C(=O)N[C@@H](CC(=O)O)C(=O)N[C@@H](Cc1ccc(-c2ccccc2)cc1)C(=O)N[C@@H](Cc1ccc(-c2ccccc2)cc1)C(N)=O)[C@@H](C)O [2-5, H2N-Trp-His-Aib-Glu-Gly-Thr-Phe-Thr-Ser-Asp-Bip-Bip-C(O)NH2] (H-WH[Aib]EGTFTSD[Bip][Bip]-NH2)",EC50,[3],10.9 nM
"CC(C)C[C@H](NC(=O)[C@@H](N)CCC(=O)O)C(=O)NC(C)(C)C(=O)N[C@@H](CCC(=O)O)C(=O)NCC(=O)N[C@H](C(=O)N[C@@](C)(Cc1ccccc1F)C(=O)N[C@H](C(=O)N[C@@H](CO)C(=O)N[C@@H](CC(=O)O)C(=O)N[C@@H](Cc1ccc(-c2ccccc2)cc1)C(=O)N[C@@H](Cc1ccc(-c2ccccc2)cc1)C(N)=O)[C@@H](C)O)[C@@H](C)O [2-6, H2N-Glu-Leu-Aib-Glu-Gly-Thr-α-MePhe(2-F)-Thr-Ser-Asp-Bip-Bip-C(O)NH2] (H-EL[Aib]EGT[αMePhe(2-F)]TSD[Bip][Bip]-NH2)",EC50,[3],9.2 nM
"CC(C)C[C@H](NC(=O)[C@@H](N)CCC(=O)O)C(=O)NC(C)(C)C(=O)N[C@@H](CC(=O)O)C(=O)NCC(=O)N[C@H](C(=O)N[C@@](C)(Cc1ccccc1F)C(=O)N[C@H](C(=O)N[C@@H](CO)C(=O)N[C@@H](CC(=O)O)C(=O)N[C@@H](Cc1ccc(-c2ccccc2)cc1)C(=O)N[C@@H](Cc1ccc(-c2ccccc2)cc1)C(N)=O)[C@@H](C)O)[C@@H](C)O [2-7, H2N-Glu-Leu-Aib-Asp-Gly-Thr-α-MePhe(2-F)-Thr-Ser-Asp-Bip-Bip-C(O)NH2] (H-EL[Aib]DGT[αMePhe(2-F)]TSD[Bip][Bip]-NH2)",EC50,[3],3.1 nM
"CC(C)C[C@H](NC(=O)[C@@H](N)Cc1ccccc1)C(=O)NC(C)(C)C(=O)N[C@@H](CCC(=O)O)C(=O)NCC(=O)N[C@H](C(=O)N[C@@](C)(Cc1ccccc1F)C(=O)N[C@H](C(=O)N[C@@H](CO)C(=O)N[C@@H](CC(=O)O)C(=O)N[C@@H](Cc1ccc(-c2ccccc2)cc1)C(=O)N[C@@H](Cc1ccc(-c2ccccc2)cc1)C(N)=O)[C@@H](C)O)[C@@H](C)O [2-8, H2N-Phe-Leu-Aib-Glu-Gly-Thr-α-MePhe(2-F)-Thr-Ser-Asp-Bip-Bip-C(O)NH2] (H-FL[Aib]EGT[αMePhe(2-F)]TSD[Bip][Bip]-NH2)",EC50,[3],4.1 nM
"CC(C)C[C@H](NC(=O)[C@@H](N)Cc1c[nH]cn1)C(=O)NC(C)(C)C(=O)N[C@@H](CC(=O)O)C(=O)NCC(=O)N[C@H](C(=O)N[C@@](C)(Cc1ccccc1F)C(=O)N[C@H](C(=O)N[C@@H](CO)C(=O)N[C@@H](CC(=O)O)C(=O)N[C@@H](Cc1ccc(-c2ccccc2)cc1)C(=O)N[C@@H](Cc1ccc(-c2ccccc2)cc1)C(N)=O)[C@@H](C)O)[C@@H](C)O [2-9, H2N-His-Leu-Aib-Asp-Gly-Thr-α-MePhe(2-F)-Thr-Ser-Asp-Bip-Bip-C(O)NH2] (H-HL[Aib]DGT[αMePhe(2-F)]TSD[Bip][Bip]-NH2)",EC50,[3],6.4 nM
"C[C@@H](O)[C@H](NC(=O)CNC(=O)[C@H](CCC(=O)O)NC(=O)C(C)(C)NC(=O)[C@@H](N)Cc1c[nH]cn1)C(=O)N[C@@H](Cc1ccccc1F)C(=O)N[C@H](C(=O)N[C@@H](CO)C(=O)N[C@@H](CC(=O)O)C(=O)N[C@@H](Cc1ccc(-c2ccccc2)cc1)C(=O)N[C@@H](Cc1ccc(-c2ccccc2)cc1)C(N)=O)[C@@H](C)O [3-1, H2N-His-Aib-Glu-Gly-Thr-Phe(2-F)-Thr-Ser-Asp-Bip-Bip-C(O)NH2] (H-H[Aib]EGT[Phe(2-F)]TSD[Bip][Bip]-NH2)",EC50,[2],0.32 nM
"C[C@@H](O)[C@H](NC(=O)CNC(=O)[C@H](CCC(=O)O)NC(=O)C(C)(C)NC(=O)[C@@H](N)Cc1c[nH]cn1)C(=O)N[C@@H](Cc1ccccc1Cl)C(=O)N[C@H](C(=O)N[C@@H](CO)C(=O)N[C@@H](CC(=O)O)C(=O)N[C@@H](Cc1ccc(-c2ccccc2)cc1)C(=O)N[C@@H](Cc1ccc(-c2ccccc2)cc1)C(N)=O)[C@@H](C)O [3-2, H2N-His-Aib-Glu-Gly-Thr-Phe(2-Cl)-Thr-Ser-Asp-Bip-Bip-C(O)NH2] (H-H[Aib]EGT[Phe(2-Cl)]TSD[Bip][Bip]-NH2)",EC50,[2],4.5 nM
